The text below walks through data of patent publication EP2401611B1, “IMPROVED METHODS FOR IDENTIFICATION” (Cambridge Enterprise Limited, priority 2009, dated 2010).

The subject of assay [1] is TNF-alpha. Kind of assay: Sub-lethal endotoxemia model (LPS challenge, serum TNF-alpha). It is filed as in vivo, mouse. The note with it: very high / highest doses. Here is the method: We selected the sub-lethal endotoxemia model in mouse, because this has been well characterised in our laboratory (see for example Fox et al. (2002) J. Med. Chem. 45:360-70; Fox et al. (2005) J. Med. Chem. 48:867-74). The extent of systemic inflammation in response to a single intraperitoneal injection of bacterial lipopolysaccharide (LPS) can be estimated by measuring serum TNF-alpha 2 hours post challenge.
Methods: Mice (CD1 strain; adult males; 6 per group) were treated with BSCI (in an appropriate vehicle) or with vehicle alone by an appropriate route. […] Simultaneously, one set of mice at each BSCI concentration received BIM 23627 at 4mg/animal (120mg/kg) by sub-cutaneous injection (a treatment condition known to suppress classical sstr2-mediated signalling, such as GH release, in rats; Tulipano et al. (2002) 143:1218-24). Between 30mins and 1hour after dosing (a period when a maximal plasma concentration of BSCI has been achieved), the inflammatory challenge was elicited by intraperitoneal injection of 750µg of LPS (Sigma; L4130 lot#024K4077; 900,000 EU/mg).
After a further 2 hours, the animals were sacrificed by CO2 asphyxiation, and blood was drawn by cardiac puncture. Serum was prepared by conventional methods, and the level of TNF-alpha in serum was measured using an ELISA (R&D Systems; Murine Quantikine code# MTA00) performed in accordance with the manufacturer's instructions.

Assay [2] has as its system THP-1 cells. Kind of assay: MCP-1 induced THP-1 cell migration (Transwell) assay. It is filed as cell-based, human. Here is the method:
In principle, this assay consists of two chambers separated by a porous membrane. The chemoattractant is placed in the lower compartment and the cells are placed in the upper compartment.
The method was performed essentially as previously described (Reckless & Grainger (1999) Biochem. J. 340:803-11).
First, the cell suspension to be placed in the upper compartment was prepared.
Next, the chemoattractant solution to be placed in the lower compartment was prepared. […] Note that, as recommended by Frow et al (Med. Res. Rev. 24:276-98) this is the concentration of MCP-1 which induces maximal migration in this system. This solution was divided into three pots, as for the cell suspension.
Once the chemoattractant solutions for the lower wells and cell solutions for the upper chambers were prepared, the migration chamber was assembled. […] Assays were performed with at least triplicate determinations of each condition. Once all the lower chambers were filled, the porous membrane was applied to the chamber in accordance with the manufacturer's instructions. […] A plastic lid was placed over the entire apparatus to prevent evaporation.
This procedure caused any cells adhering to the underside of the membrane to fall into the lower chamber.
The number of cells migrated into the lower chamber under each condition can then be determined by a number of methods, including direct counting, labelling with fluorescent or radioactive markers or through the use of a vital dye. Typically, we utilised the vital dye MTT.

For the compound `C[C@@H]1C[C@H]2[C@@H]3CCC4=CC(=O)C=C[C@]4(C)[C@@]3(F)[C@@H](O)C[C@]2(C)[C@@]1(O)C(=O)CO` [dexamethasone], in assay [1], the “inhibition of TNF-alpha” value was “more than 90%”.

Regarding Cortistatin, in assay [2], the “ED50 for inhibition of chemokine-induced THP-1 cell migration” value is reported as roughly 75 nM. Further, the ED50 in assay [2] (Table 2, inhibition of MCP-1 induced THP-1 cell migration) worked out at 75 nM. Also, the Max effect in assay [2] (Table 2, maximum inhibition at the highest dose tested (1-10µM)) is 40-60%. The “maximal inhibition of leukocyte migration” value in assay [2] (even at maximal / very high doses) was roughly 50%.
